We go through one molecule from patent publication US20220151276A1, “COMPOSITION CONTAINING PLANT-DERIVED EXTRACT AND/OR PLANT-DERIVED PROCESSED PRODUCT” (OTSUKA PHARMACEUTICAL CO., LTD., priority 2019, published 2022).

The subject of the assay is healthy adult males. The assay is described as follows: Incremental loading exercise test with bicycle. Type of assay: in vivo, human. On the procedure: For 25 healthy adult males, 3 dosages of kaempferol-containing cookie-shaped foods (containing 2.5 mg, 10 mg, or 25 mg of kaempferol, respectively) and a placebo cookie-shaped food (kaempferol-free) were used as test foods, and a once-a-day ingestion for consecutive 8 days were repeated four times by the crossover method. 3 hours after a test food ingestion on day 1 (Single ingestion) and on day 8 (Consecutive ingestion), an incremental loading exercise with bicycle was performed while sampling the exhaled gas to determine the oxygen consumption. The Heart rate and the rating of perceived exertion were monitored during exercise. Dynamic/kinetic visual acuity was measured before and after the exercise. Details of each endpoint are given below. Oxygen consumption (VO2) (mL/min/kg) was calculated from the difference between the amount of oxygen in the inhaled gas (atmosphere) and the amount of oxygen in the exhaled gas. When a weight of the pedal approaches a subject's limit during incremental loading exercise with bicycle, a heart rate (HR) is maximized. The increase in heart rate from the resting heart rate to the maximum heart rate was defined as 100% of exercise intensity, and the oxygen consumption (VO2) was plotted at each exercise intensity. That is, for example, an exercise intensity of 50% HR is calculated by the following equation: 100×(x−Resting heart rate)/(Maximum heart rate−Resting heart rate)=50% HR, and the oxygen consumption (VO2) in which the heart rate is the “x” means “oxygen consumption (VO2) at an exercise intensity of 50% HR”. Oxygen consumption efficiency was calculated by the following equation. Oxygen consumption efficiency (VO2/VE)=oxygen consumption/ventilation The oxygen uptake efficiency slope (OUES) was calculated using the ventilation and VO2 every 1 min from the beginning of the incremental loading exercise. Specifically, a graph of linearity was obtained by plotting “logarithmic value of ventilation (VE)” on the horizontal axis and “VO2” on the vertical axis, and the slope of the linear function graph was defined as OUES. For details, see Non-Patent Document 5. Exercise intensity (% HR) and rating of perceived exertion (RPE) at the oxygen consumption (VO2) of 14 mL/min/kg and 24.5 mL/min/kg in incremental loading exercise (the levels of stair climbing and jogging, respectively) were evaluated. The calculation methods for oxygen consumption (VO2) and exercise intensity (% HR) are the same as those described above. The perceived exertion was rated by the subject according to the following table at 1-minute intervals from the beginning of the incremental loading exercise, and the scales rated by each subject were averaged to give the rating of perceived exertion (RPE).

Where [1] appears, read: single and consecutive ingestion, at VO2 of 14 mL/min/kg (stair climbing) and 24.5 mL/min/kg (jogging), compared with no intake of kaempferol.
The mark [2] stands for this setting: single and consecutive ingestion, incremental loading exercise, compared with no intake of kaempferol.

For the molecule `O=c1c(O)c(-c2ccc(O)cc2)oc2cc(O)cc(O)c12` [kaempferol], under “single and consecutive ingestion, after initiation of incremental loading exercise, compared with no intake of kaempferol”, the “oxygen consumption efficiency (VO2/VE)” value is reported as “increased oxygen consumption efficiency”. Besides, under setting [1], the “exercise intensity (% HR) at given oxygen consumption” value is “decreased exercise intensity” and the “rating of perceived exertion (RPE)” value is given as “decreased rating of perceived exertion”. Moreover, under setting [2], the “maximum exercise load (Pedal Weight (watt))” value is given as “increased maximum exercise load”, the “maximum oxygen consumption (VO2peak)” value is “increased maximum oxygen consumption” and the “oxygen uptake efficiency slope (OUES)” value is “increased oxygen uptake efficiency slope”. The “oxygen consumption (VO2) at each exercise intensity” value (single ingestion (day 1) and consecutive ingestion (day 8), 3 hours after ingestion, exercise intensities 50-100% HR, compared with no intake of kaempferol (placebo)) is “increased oxygen consumption at all exercise intensities”.
